From patent US10865216B2, “Tricyclic Gyrase inhibitors” (MERCK SHARP & DOHME CORP., priority 2012, dated 2020)
In brackets after ≈: the same amount, converted by molar mass.

tested on: E. coli ATCC 25922; experiment: MIC, E. coli ATCC 25922; type: cell-based; details: E. coli; Alamar Blue read after overnight incubation at 35° C.

| SMILES | MIC Ec [µg/mL] |
| --- | --- |
| CNc1cc(F)cc2c1[nH]c1nc(Oc3cnc(C)nc3)nc(N3C[C@@H]4C(N)CC(C)(C)[C@@H]4C3)c12 (some centres unmarked) [Compound 4.097] | 2 (≈ 4.2 µM) |
| CNc1cc(F)cc2c1[nH]c1nc(Oc3cnc(N)nc3)nc(N3CC4CNC4C3)c12 (centres unmarked) [Compound 4.178] | 8 (≈ 19 µM) |
| CNc1cc(F)cc2c1[nH]c1nc(Oc3cnc(C4CC4)nc3)nc(N3CC4CC4(CN)C3)c12 (centres unmarked) [Compound 4.246] | ≤0.5 |
| CNc1cc(F)cc2c1[nH]c1nc(Oc3cnc(SC)nc3)nc(N3CC4CC(N)C4C3)c12 (centres unmarked) [Compound 4.196] | ≤0.5 |
| CNc1cc(F)cc2c1[nH]c1nc(Oc3cnc(C#N)c(C)c3)nc(N3CC(N)C4(CC4)C3)c12 (centres unmarked) [Compound 4.324] | ≤0.5 |
| CNc1cccc2c1[nH]c1nc(Sc3cnc4ccc[n+]([O-])c4c3)nc(N3CC4C(N)C4C3)c12 (centres unmarked) [Compound 1.71] | ≤0.5 |
| CNc1cc(F)cc2c1[nH]c1nc(Oc3ccc4sc(C)nc4c3)nc(N3CC4CC(N)CC4C3)c12 (centres unmarked) [Compound 4.321] | 1 (≈ 1.99 µM) |
| CNc1cc(F)c(F)c2c1[nH]c1nc(Oc3ncc(C)cn3)nc(N3CC4C(N)C4C3)c12 (centres unmarked) [Compound 5.04] | ≤0.5 |
| CNc1cc(F)cc2c1[nH]c1nc(Oc3cncc(C#N)c3)nc(N3CC4(CCC4N)C3)c12 (centres unmarked) [Compound 4.054] | ≤0.5 |
| CNc1cc(F)cc2c1[nH]c1nc(Oc3cnc4ccc[n+]([O-])c4c3)nc(N3CC4(CCC4N)C3)c12 (centres unmarked) [Compound 4.342] | 4 (≈ 8.22 µM) |
| CNc1cc(F)cc2c1[nH]c1nc(Oc3ccc(C#N)nc3)nc(N3CC4CCNC4C3)c12 (centres unmarked) [Compound 4.330] | ≤0.5 |
| CNc1cc(F)cc2c1[nH]c1nc(Oc3ccc(C#N)nc3)nc(N3CC(N)C4(CC4)C3)c12 (centres unmarked) [Compound 4.329] | ≤0.5 |
| CNc1cc(F)cc2c1[nH]c1nc(Oc3cncc(C#N)c3)nc(N3CCC4(CC4N)C3)c12 (centres unmarked) [Compound 4.052] | ≤0.5 |
| CNc1cc(F)cc2c1[nH]c1nc(Oc3cnc(N4CCOCC4)nc3)nc(N3CC(N)C4(CC4)C3)c12 (centres unmarked) [Compound 4.213] | 1 (≈ 1.98 µM) |
| CNc1cc(F)cc2c1[nH]c1nc(Oc3cnc(C(C)(C)C)nc3)nc(N3CC4CC(N)C4C3)c12 (centres unmarked) [Compound 4.316] | 1 (≈ 2.1 µM) |
| CCc1ncc(Oc2nc(N3CCC(N)C3)c3c(n2)[nH]c2c(NC)cc(F)cc23)cn1 (centres unmarked) [Compound 4.262] | ≤0.5 |
| CNc1cccc2c1[nH]c1nc(Sc3cnc4ccc[n+]([O-])c4c3)nc(N3C[C@@H]4[C@H](C3)[C@@]4(N)C(N)=O)c12 [Compound 1.19] | >64 |
| CNc1cc(F)cc2c1[nH]c1nc(Oc3cnc(N)nc3)nc(N3CC4C(CN)C4C3)c12 (centres unmarked) [Compound 4.188] | 8 (≈ 18.4 µM) |
| NC1CN(c2nc(Sc3cnc4ccc[n+]([O-])c4c3)nc3[nH]c4c(NC5CC5)cc(F)cc4c23)CC12CC2 (centres unmarked) [Compound 1.02] | >64 |
| CNc1cc(F)cc2c1[nH]c1nc(Oc3cnc4cccnc4c3)nc(N3CC4CCNC4C3)c12 (centres unmarked) [Compound 4.044] | ≤0.5 |
| CNc1cc(F)cc2c1[nH]c1nc(Oc3cnc(N4CCOCC4)nc3)nc(N3CC4C(N)C4C3)c12 (centres unmarked) [Compound 4.211] | >16 |
| CNc1cc(F)cc2c1[nH]c1nc(Oc3ccc4c(N)nc(C)nc4c3)nc(N3CC4C(N)C4C3)c12 (centres unmarked) [Compound 4.288] | >16 |
| CNc1cc(F)cc2c1[nH]c1nc(Oc3cnc(C4CC4)nc3)nc(N3CC4CCC(N)C4C3)c12 (centres unmarked) [Compound 4.251] | ≤0.5 |
| CNc1cc(F)cc2c1[nH]c1nc(Oc3cnc(N(C)C)nc3)nc(N3CC4C(N)C4C3)c12 (centres unmarked) [Compound 4.208] | ≤0.5 |

same assay, conditions: Escherichia coli, ATCC25922, E. coli; Alamar Blue read after overnight incubation at 35° C.; read-out: MIC Ec

| SMILES | MIC [µg/mL] |
| --- | --- |
| CNc1cccc2c1[nH]c1nc(Sc3ccc4ccc(C(=O)O)nc4c3)nc(N3CC4C(N)C4C3)c12 (centres unmarked) [Compound 1.74] | > 64 |
| CNc1ccc(C)c2c1[nH]c1nc(Sc3cnc4cccnc4c3)nc(N3CC4C(N)C4C3)c12 (centres unmarked) [Compound 1.58] | 8 (≈ 17.1 µM) |
| CNc1cccc2c1[nH]c1nc(Oc3cncnc3)cc(N3CCN(CCN4CCOCC4)CC3)c12 [Compound 3.60] | > 64 |
| COc1cccc2c1[nH]c1nc(Sc3cnc4nccnc4c3)nc(N3CC4C(N)C4C3)c12 (centres unmarked) [Compound 1.76] | > 64 |

tested on: S. aureus ATCC 13709; experiment: MIC, S. aureus ATCC 13709; type: cell-based; details: S. aureus; Alamar Blue read after overnight incubation at 35° C.

| SMILES | MIC Sa [µg/mL] |
| --- | --- |
| CNc1cc(F)cc2c1[nH]c1nc(Oc3cnc(C)nc3)nc(N3C[C@@H]4C(N)CC(C)(C)[C@@H]4C3)c12 (some centres unmarked) [Compound 4.097] | ≤0.5 |
| CNc1cc(F)cc2c1[nH]c1nc(Oc3cnc(N)nc3)nc(N3CC4CNC4C3)c12 (centres unmarked) [Compound 4.178] | ≤0.5 |
| CNc1cc(F)cc2c1[nH]c1nc(Oc3cnc(C4CC4)nc3)nc(N3CC4CC4(CN)C3)c12 (centres unmarked) [Compound 4.246] | ≤0.5 |
| CNc1cc(F)cc2c1[nH]c1nc(Oc3cnc(SC)nc3)nc(N3CC4CC(N)C4C3)c12 (centres unmarked) [Compound 4.196] | ≤0.5 |
| CNc1cc(F)cc2c1[nH]c1nc(Oc3cnc(C#N)c(C)c3)nc(N3CC(N)C4(CC4)C3)c12 (centres unmarked) [Compound 4.324] | ≤0.5 |
| CNc1cccc2c1[nH]c1nc(Sc3cnc4ccc[n+]([O-])c4c3)nc(N3CC4C(N)C4C3)c12 (centres unmarked) [Compound 1.71] | ≤0.5 |
| CNc1cc(F)cc2c1[nH]c1nc(Oc3ccc4sc(C)nc4c3)nc(N3CC4CC(N)CC4C3)c12 (centres unmarked) [Compound 4.321] | ≤0.5 |
| CNc1cc(F)c(F)c2c1[nH]c1nc(Oc3ncc(C)cn3)nc(N3CC4C(N)C4C3)c12 (centres unmarked) [Compound 5.04] | ≤0.5 |
| CNc1cc(F)cc2c1[nH]c1nc(Oc3cncc(C#N)c3)nc(N3CC4(CCC4N)C3)c12 (centres unmarked) [Compound 4.054] | ≤0.5 |
| CNc1cc(F)cc2c1[nH]c1nc(Oc3cnc4ccc[n+]([O-])c4c3)nc(N3CC4(CCC4N)C3)c12 (centres unmarked) [Compound 4.342] | ≤0.5 |
| CNc1cc(F)cc2c1[nH]c1nc(Oc3ccc(C#N)nc3)nc(N3CC4CCNC4C3)c12 (centres unmarked) [Compound 4.330] | ≤0.5 |
| CNc1cc(F)cc2c1[nH]c1nc(Oc3ccc(C#N)nc3)nc(N3CC(N)C4(CC4)C3)c12 (centres unmarked) [Compound 4.329] | ≤0.5 |
| CNc1cc(F)cc2c1[nH]c1nc(Oc3cncc(C#N)c3)nc(N3CCC4(CC4N)C3)c12 (centres unmarked) [Compound 4.052] | ≤0.5 |
| CNc1cc(F)cc2c1[nH]c1nc(Oc3cnc(N4CCOCC4)nc3)nc(N3CC(N)C4(CC4)C3)c12 (centres unmarked) [Compound 4.213] | ≤0.5 |
| CNc1cc(F)cc2c1[nH]c1nc(Oc3cnc(C(C)(C)C)nc3)nc(N3CC4CC(N)C4C3)c12 (centres unmarked) [Compound 4.316] | ≤0.5 |
| CCc1ncc(Oc2nc(N3CCC(N)C3)c3c(n2)[nH]c2c(NC)cc(F)cc23)cn1 (centres unmarked) [Compound 4.262] | ≤0.5 |
| CNc1cccc2c1[nH]c1nc(Sc3cnc4ccc[n+]([O-])c4c3)nc(N3C[C@@H]4[C@H](C3)[C@@]4(N)C(N)=O)c12 [Compound 1.19] | >64 |
| CNc1cc(F)cc2c1[nH]c1nc(Oc3cnc(N)nc3)nc(N3CC4C(CN)C4C3)c12 (centres unmarked) [Compound 4.188] | ≤0.5 |
| NC1CN(c2nc(Sc3cnc4ccc[n+]([O-])c4c3)nc3[nH]c4c(NC5CC5)cc(F)cc4c23)CC12CC2 (centres unmarked) [Compound 1.02] | 32 (≈ 60.5 µM) |
| CNc1cc(F)cc2c1[nH]c1nc(Oc3cnc4cccnc4c3)nc(N3CC4CCNC4C3)c12 (centres unmarked) [Compound 4.044] | ≤0.5 |
| CNc1cc(F)cc2c1[nH]c1nc(Oc3cnc(N4CCOCC4)nc3)nc(N3CC4C(N)C4C3)c12 (centres unmarked) [Compound 4.211] | 16 (≈ 32.6 µM) |
| CNc1cc(F)cc2c1[nH]c1nc(Oc3ccc4c(N)nc(C)nc4c3)nc(N3CC4C(N)C4C3)c12 (centres unmarked) [Compound 4.288] | 4 (≈ 8.24 µM) |
| CNc1cc(F)cc2c1[nH]c1nc(Oc3cnc(C4CC4)nc3)nc(N3CC4CCC(N)C4C3)c12 (centres unmarked) [Compound 4.251] | ≤0.5 |
| CNc1cc(F)cc2c1[nH]c1nc(Oc3cnc(N(C)C)nc3)nc(N3CC4C(N)C4C3)c12 (centres unmarked) [Compound 4.208] | ≤0.5 |

same assay, conditions: Staphylococcus aureus, ATCC13709, S. aureus; Alamar Blue read after overnight incubation at 35° C.; read-out: MIC Sa

| SMILES | MIC [µg/mL] |
| --- | --- |
| CNc1cccc2c1[nH]c1nc(Sc3ccc4ccc(C(=O)O)nc4c3)nc(N3CC4C(N)C4C3)c12 (centres unmarked) [Compound 1.74] | 4 (≈ 8.04 µM) |
| CNc1ccc(C)c2c1[nH]c1nc(Sc3cnc4cccnc4c3)nc(N3CC4C(N)C4C3)c12 (centres unmarked) [Compound 1.58] | ≤ 0.5 |
| CNc1cccc2c1[nH]c1nc(Oc3cncnc3)cc(N3CCN(CCN4CCOCC4)CC3)c12 [Compound 3.60] | 8 (≈ 16.4 µM) |
| COc1cccc2c1[nH]c1nc(Sc3cnc4nccnc4c3)nc(N3CC4C(N)C4C3)c12 (centres unmarked) [Compound 1.76] | 1 (≈ 2.19 µM) |
